Data taken from PubChem BioAssay AID2060903 (Molecular Pharmacology Branch, DTP, NCI, 2025).

System: 377384-186-R-J1-PDC complex spheroid viability
Assay: Anticancer human tumor 377384-186-R-J1-PDC patient-derived pancreatic carcinoma cell line growth inhibition [RAS]
Conditions: for viability, T/C: stronger effect = lower value
Outline: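 Multi-cell-type spheroids: tumor cells plus HUVEC endothelial cells and mesenchymal stem cells. RAS-pathway inhibitors were combined with targeted agents, each dosed in half-log steps down from clinical Cmax, or from 10 microM when Cmax was unknown.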

[1] = curve of first compound, second compound 0.000949 µM
[2] = curve of first compound, second compound 0.003 µM
[3] = curve of first compound, second compound 0.00949 µM
[4] = curve of first compound, second compound 0.03 µM
[5] = curve of first compound, second compound 0.0949 µM
[6] = curve of first compound, second compound 0.3 µM
[7] = second compound 0.000949 µM, first compound 0.0316 µM
[8] = second compound 0.000949 µM, first compound 0.1 µM
[9] = second compound 0.000949 µM, first compound 0.316 µM
[10] = second compound 0.000949 µM, first compound 1 µM
[11] = second compound 0.003 µM, first compound 0.0316 µM
[12] = second compound 0.003 µM, first compound 0.1 µM
[13] = second compound 0.003 µM, first compound 0.316 µM
[14] = second compound 0.003 µM, first compound 1 µM
[15] = second compound 0.00949 µM, first compound 0.0316 µM
[16] = second compound 0.00949 µM, first compound 0.1 µM
[17] = second compound 0.00949 µM, first compound 0.316 µM
[18] = second compound 0.00949 µM, first compound 1 µM
[19] = second compound 0.03 µM, first compound 0.0316 µM
[20] = second compound 0.03 µM, first compound 0.1 µM
[21] = second compound 0.03 µM, first compound 0.316 µM
[22] = second compound 0.03 µM, first compound 1 µM
[23] = second compound 0.0949 µM, first compound 0.0316 µM
[24] = second compound 0.0949 µM, first compound 0.1 µM
[25] = second compound 0.0949 µM, first compound 0.316 µM
[26] = second compound 0.0949 µM, first compound 1 µM
[27] = second compound 0.3 µM, first compound 0.0316 µM
[28] = second compound 0.3 µM, first compound 0.1 µM
[29] = second compound 0.3 µM, first compound 0.316 µM
[30] = second compound 0.3 µM, first compound 1 µM
[31] = compound alone, run of 09/09/2024
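Further: spheroids exposed to compounds for seven days before readout.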

C=CC(=O)N1CCN(c2nc(OCC3CCCN3C)nc3c(F)c(-c4nc(N)cc(C)c4C(F)(F)F)c(Cl)cc23)C(C)C1 (centres undefined) + CCn1c(-c2cccnc2C(C)OC)c2c3cc(ccc31)N1CCOC(CC(NC(=O)C(C(C)C)N(C)C(=O)C3(F)CCN(C(=O)C#CC(C)(C)N(C)C)CC3)C(=O)N3CCCC(N3)C(=O)OCC(C)(C)C2)C1
IC50 [1]: > 1 µM
IC50 [2]: > 1 µM
IC50 [3]: > 1 µM
IC50 [4]: > 1 µM
IC50 [5]: > 1 µM
IC50 [6]: > 1 µM
viability, T/C (second compound 0.000949 µM, first compound 0.00316 µM): 107%
viability, T/C (second compound 0.000949 µM, first compound 0.01 µM): 108%
viability, T/C [7]: 117%
viability, T/C [8]: 103%
viability, T/C [9]: 110%
viability, T/C [10]: 89.9%
viability, T/C (second compound 0.003 µM, first compound 0.00316 µM): 104%
viability, T/C (second compound 0.003 µM, first compound 0.01 µM): 96.4%
viability, T/C [11]: 103%
viability, T/C [12]: 114%
viability, T/C [13]: 104%
viability, T/C [14]: 93.3%
viability, T/C (second compound 0.00949 µM, first compound 0.00316 µM): 113%
viability, T/C (second compound 0.00949 µM, first compound 0.01 µM): 97.7%
viability, T/C [15]: 120%
viability, T/C [16]: 117%
viability, T/C [17]: 104%
viability, T/C [18]: 99.2%
viability, T/C (second compound 0.03 µM, first compound 0.00316 µM): 104%
viability, T/C (second compound 0.03 µM, first compound 0.01 µM): 96.7%
viability, T/C [19]: 99.7%
viability, T/C [20]: 92.5%
viability, T/C [21]: 99%
viability, T/C [22]: 106%
viability, T/C (second compound 0.0949 µM, first compound 0.00316 µM): 93.3%
viability, T/C (second compound 0.0949 µM, first compound 0.01 µM): 91.3%
viability, T/C [23]: 94.8%
viability, T/C [24]: 103%
viability, T/C [25]: 101%
viability, T/C [26]: 93.4%
viability, T/C (second compound 0.3 µM, first compound 0.00316 µM): 86.1%
viability, T/C (second compound 0.3 µM, first compound 0.01 µM): 86.3%
viability, T/C [27]: 96.8%
viability, T/C [28]: 88.1%
viability, T/C [29]: 96%
viability, T/C [30]: 94.8%

C=CC(=O)N1CCN(c2nc(OCC3CCCN3C)nc3c(F)c(-c4nc(N)cc(C)c4C(F)(F)F)c(Cl)cc23)C(C)C1 (centres undefined)
viability, T/C (compound 0.00316 µM): 96.1% [middle of 12 runs]
viability, T/C (compound 0.0316 µM): 95.5% [middle of 12 runs]
viability, T/C (compound 1 µM): 96.5% [middle of 12 runs]
IC50 [31]: > 1 µM
IC50 (curve of compound): > 1 µM

CCC(CC)c1cc(NC2CCC(N)C2)n2nccc2n1 (centres undefined)
viability, T/C (compound 0.0316 µM): 100% [middle of 4 runs]
viability, T/C (compound 0.1 µM): 105% [middle of 4 runs]
viability, T/C (compound 0.316 µM): 105% [middle of 4 runs]
viability, T/C (compound 3.16 µM): 3.17% [middle of 4 runs]
viability, T/C (compound 10 µM): 4.82% [middle of 4 runs]
IC50 (curve of compound): 1.68 µM [middle of 4 runs]

C[C@@H](NC(=O)c1ncnc(N)c1Cl)c1ncc(C(=O)Nc2cc(C(F)(F)F)c(Cl)cn2)s1 + CCn1c(-c2cc(N3CCN(C)CC3)cnc2C(C)OC)c2c3cc(ccc31)-c1csc(n1)CC(NC(=O)C1CC1C)C(=O)N1CCCC(N1)C(=O)OCC(C)(C)C2
IC50 [1]: > 10 µM
IC50 [2]: < 0.0316 µM
IC50 [3]: < 0.0316 µM
IC50 [4]: < 0.0316 µM
IC50 [5]: < 0.0316 µM
IC50 [6]: < 0.0316 µM
viability, T/C [7]: 60.5%
viability, T/C [8]: 68%
viability, T/C [9]: 62.4%
viability, T/C [10]: 69.9%
viability, T/C (second compound 0.000949 µM, first compound 3.16 µM): 65.2%
viability, T/C (second compound 0.000949 µM, first compound 10 µM): 49%
viability, T/C [11]: 39.1%
viability, T/C [12]: 36.5%
viability, T/C [13]: 34.7%
viability, T/C [14]: 40.3%
viability, T/C (second compound 0.003 µM, first compound 3.16 µM): 29.3%
viability, T/C (second compound 0.003 µM, first compound 10 µM): 19.9%
viability, T/C [15]: 8.23%
viability, T/C [16]: 12.1%
viability, T/C [17]: 12.7%
viability, T/C [18]: 11.6%
viability, T/C (second compound 0.00949 µM, first compound 3.16 µM): 14%
viability, T/C (second compound 0.00949 µM, first compound 10 µM): 11.2%
viability, T/C [19]: 2.09%
viability, T/C [20]: 2.73%
viability, T/C [21]: 3.94%
viability, T/C [22]: 4.72%
viability, T/C (second compound 0.03 µM, first compound 3.16 µM): 3.74%
viability, T/C (second compound 0.03 µM, first compound 10 µM): 2.97%
viability, T/C [23]: 2.41%
viability, T/C [24]: 2.22%
viability, T/C [25]: 2.96%
viability, T/C [26]: 3.02%
viability, T/C (second compound 0.0949 µM, first compound 3.16 µM): 2.41%
viability, T/C (second compound 0.0949 µM, first compound 10 µM): 1.87%
viability, T/C [27]: 1.66%
viability, T/C [28]: 2.36%
viability, T/C [29]: 2.7%
viability, T/C [30]: 2.88%
viability, T/C (second compound 0.3 µM, first compound 3.16 µM): 2.27%
viability, T/C (second compound 0.3 µM, first compound 10 µM): 2.12%

CC(Nc1ccc2c(c1)OCCn1cc(N3C(=O)OCC3C(F)F)nc1-2)C(N)=O (centres undefined) + C#Cc1c(F)ccc2cc(O)cc(-c3ncc4c(N5CC6CCC(C5)N6)nc(OCC56CCCN5CC(F)C6)nc4c3F)c12
IC50 (curve of first compound, second compound 0.0316 µM): < 0.0316 µM
IC50 (curve of first compound, second compound 0.1 µM): < 0.0316 µM
IC50 (curve of first compound, second compound 0.316 µM): < 0.0316 µM
IC50 (curve of first compound, second compound 1 µM): < 0.0316 µM
IC50 (curve of first compound, second compound 3.16 µM): < 0.0316 µM
IC50 (curve of first compound, second compound 10 µM): < 0.0316 µM
viability, T/C (second compound 0.0316 µM, first compound 0.0316 µM): 15.8%
viability, T/C (second compound 0.0316 µM, first compound 0.1 µM): 14.3%
viability, T/C (second compound 0.0316 µM, first compound 0.316 µM): 7.76%
viability, T/C (second compound 0.0316 µM, first compound 1 µM): 6.8%
viability, T/C (second compound 0.0316 µM, first compound 3.16 µM): 5.84%
viability, T/C (second compound 0.0316 µM, first compound 10 µM): 4.21%
viability, T/C (second compound 0.1 µM, first compound 0.0316 µM): 6.67%
viability, T/C (second compound 0.1 µM, first compound 0.1 µM): 6.43%
viability, T/C (second compound 0.1 µM, first compound 0.316 µM): 3.06%
viability, T/C (second compound 0.1 µM, first compound 1 µM): 2.11%
viability, T/C (second compound 0.1 µM, first compound 3.16 µM): 1.21%
viability, T/C (second compound 0.1 µM, first compound 10 µM): 0.7%
viability, T/C (second compound 0.316 µM, first compound 0.0316 µM): 3.3%
viability, T/C (second compound 0.316 µM, first compound 0.1 µM): 2.54%
viability, T/C (second compound 0.316 µM, first compound 0.316 µM): 1.59%
viability, T/C (second compound 0.316 µM, first compound 1 µM): 0.81%
viability, T/C (second compound 0.316 µM, first compound 3.16 µM): 0.63%
viability, T/C (second compound 0.316 µM, first compound 10 µM): 0.43%
viability, T/C (second compound 1 µM, first compound 0.0316 µM): 2.75%
viability, T/C (second compound 1 µM, first compound 0.1 µM): 1.42%
viability, T/C (second compound 1 µM, first compound 0.316 µM): 0.85%
viability, T/C (second compound 1 µM, first compound 1 µM): 0.69%
viability, T/C (second compound 1 µM, first compound 3.16 µM): 0.44%
viability, T/C (second compound 1 µM, first compound 10 µM): 0.27%
viability, T/C (second compound 3.16 µM, first compound 0.0316 µM): 1.42%
viability, T/C (second compound 3.16 µM, first compound 0.1 µM): 0.91%
viability, T/C (second compound 3.16 µM, first compound 0.316 µM): 0.56%
viability, T/C (second compound 3.16 µM, first compound 1 µM): 0.32%
viability, T/C (second compound 3.16 µM, first compound 3.16 µM): 0.39%
viability, T/C (second compound 3.16 µM, first compound 10 µM): 0.32%
viability, T/C (second compound 10 µM, first compound 0.0316 µM): 0.95%
viability, T/C (second compound 10 µM, first compound 0.1 µM): 0.23%
viability, T/C (second compound 10 µM, first compound 0.316 µM): 0.14%
viability, T/C (second compound 10 µM, first compound 1 µM): 0.17%
viability, T/C (second compound 10 µM, first compound 3.16 µM): 0.45%
viability, T/C (second compound 10 µM, first compound 10 µM): 0.11%

C#Cc1c(F)ccc2cc(O)cc(-c3ncc4c(N5CC6CCC(C5)N6)nc(OCC56CCCN5CC(F)C6)nc4c3F)c12 (centres undefined)
viability, T/C (compound 0.0316 µM): 25.6% [middle of 8 runs]
viability, T/C (compound 0.1 µM): 11.4% [middle of 8 runs]
viability, T/C (compound 0.316 µM): 4.64% [middle of 8 runs]
viability, T/C (compound 1 µM): 3.15% [middle of 8 runs]
viability, T/C (compound 3.16 µM): 2.31% [middle of 8 runs]
viability, T/C (compound 10 µM): 1.33% [middle of 8 runs]
IC50 [31]: < 0.0316 µM
